Experimental data taken from patent publication US20260150838A1, “ASCAROSIDE DERIVATIVES” (Ascribe Bioscience Inc., priority 2023, published 2026).
Where “and” joins values, the source holds several entries; their conditions need not be identical. Identical values can stand only once.

What was measured:
Bipolaris sorokiniana = assay: wheat pathogen assay (fungal infection of wheat seedlings); type: in vivo; settings: FIG. 1; for infection symptoms (symptomatic areas relative to the total leaf area) compared to mock: wheat cv. Louise sprayed with 1 μM solution in 0.1% Tween-20, inoculated 48 hours later with Bipolaris sorokiniana spores; for efficacy in reducing fungal infection relative to ascr #18: wheat, 1 μM solutions
Method: The products of Examples 1, 1a to 1, 1c (hereafter referred to as compounds 1a, 1b, and 1c) were evaluated in a wheat pathogen assay to assess the potential of these analogs to prevent crop damage caused by a fungal pathogen. Wheat seeds of cv. Louise were planted in potting soil and grown for two weeks in a growth chamber at 26° C. and 23° C., respectively, with 16 hours of light. After two weeks, the plants were sprayed with a 1 μM solution of ascr #18, or compounds 1a, 1b, or 1c containing 0.1% (v/v) Tween®-20 in water solution, or with a mock solution only containing 0.1% (v/v) Tween®-20. 48 hours after treatment, the wheat plants were inoculated with a Bipolaris sorokiniana spore solution (with 15000 spores/ml) and placed in a dark grow tent with high humidity (>80% RH) for 24 hours at 23° C. Subsequently, the plants were moved to a high humidity environment (>80% RH) at 23° C. and 12 hours of light and dark until fungal infection was visible on the leaves of the mock-treated plants (usually after about four days). Symptoms were evaluated by photographing the infected leaves and processing the images through machine learning image analysis software (Ilastik) to determine the symptomatic areas relative to the total leaf area. […] The infection levels in the treated plants were similar to those treated with 1 μM ascr #18. […] In FIG. 1, error bars depict standard error of the mean for a total n≥35 plants across 4 independent experiments. Outliers were removed with the GraphPad ROUT method, and significance determined by a one-way ANOVA test.

[1] = uptake and metabolism of ascaroside amides in alfalfa seedlings (LC-MS of tissue extracts); type: in vivo; settings: for hydrolysis or metabolism by the plant: alfalfa plants, timeframe shown (24 h + 4 h)
Method: Ascaroside analogs 1a, 1b, and 1c were also evaluated in alfalfa seedlings to assess whether plants take up these analogs and whether they are hydrolyzed or metabolized to other ascarosides (specifically to ascr #18 and/or ascr #18 metabolites). The ascr #18 metabolism was evaluated by assaying the plant tissues for the known ascaroside metabolite ascr #9.
(§1) Alfalfa seeds were germinated in the dark on culture plates (10 seeds per plate) containing Gelzan growth medium and were allowed to grow for 3-4 days before treatment. Treatment consisted of flooding the plates with 10 μM aqueous solutions of one of the ascaroside analogs 1a, 1b, or 1c, with ascr #18 (as a positive control), or with plain water as a mock treatment (5 ml total volume, solutions prepared in MQ water). Each experiment was performed in duplicate. After 24 hours, the plates were moved to an illuminated growth chamber for 4 hours before sampling.
Sprouts were collected, thoroughly rinsed with MQ water, dried, flash-frozen, and homogenized. The homogenized tissues were extracted with 100% ethanol and the extracts were analyzed using high-resolution liquid chromatography-mass spectrometry (LC-MS). LC-MS analysis was performed using a Dionex 3000 UPLC coupled with a Thermo Q Exactive high-resolution mass spectrometer equipped with a HESI ion source. To measure ascarosides, samples were chromatographed using an Agilent Zorbax Eclipse column (150 mm×2.1 mm, particle size 1.98 μm) maintained at 40° C. with a 0.5 ml/min flow rate. Solvent A: 0.1% formic acid in water; Solvent B: 0.1% formic acid in acetonitrile. A solvent mixture using 1% B was used for 1.5 min after injection, followed by a linear gradient up to 99% B at 9.5 min, followed by 0.75 min of 99% B, then back to 1% B over 0.5 min, and finally held at 1% B for an additional 1.25 min to re-equilibrate the column (total time: 12 min, with needle washing and file writing: ˜14 min). Mass spectrometer parameters: spray voltage (−3.0 kV or +3.5 kV); capillary temperature 380° C.; probe heater temperature 400° C.; sheath, auxiliary, and sweep gas 60, 20, and 2 AU, respectively—S-Lens RF level: 50, resolution 120,000 at m/z 200, AGC target 3E6. Samples were injected and analyzed in negative electrospray ionization mode with an m/z range of 100-1000. Ascr #18 (C17H32O6) ionizes in negative ion mode as C17H31O6, m/z=331.2126, retention time 6 minutes using the above chromatographic conditions. Samples were also analyzed in positive ionization mode.
(§2) The treatment solutions used to treat the sprouts were also analyzed assayed and the results are shown in the Column of Table 1 labeled “Input” In each case, only the analog, or ascr #18 respectively is detected, indicating the molecules are stable in the treatment solutions.

[2] = LC-MS analysis of the treatment solutions (Input); type: physicochemical; settings: 10 μM aqueous treatment solutions used to treat the sprouts; Rep1/Rep2
Method: as §1
Sprouts were collected, thoroughly rinsed with MQ water, dried, flash-frozen, and homogenized. The homogenized tissues were extracted with 100% ethanol and the extracts were analyzed using high-resolution liquid chromatography-mass spectrometry (LC-MS). […] Samples were injected and analyzed in negative electrospray ionization mode with an m/z range of 100-1000. […] Samples were also analyzed in positive ionization mode.
as §2

hydrolysis or metabolism by the plant [1]	uptake by plants ([1]; alfalfa sprouts, 10 μM)	Input (LCMS detector response for diagnostic ion of the analog or ascr#18) [2]	Structure (SMILES)	infection symptoms (symptomatic areas relative to the total leaf area) compared to mock (Bipolaris sorokiniana)	efficacy in reducing fungal infection relative to ascr #18 (Bipolaris sorokiniana)	half-life in the plant relative to ascr #18 ([1]; alfalfa, inferred from LC-MS data of Table 1)
hydrolyzed or metabolized by the plant	–	–	C[C@H](CCCCCCCCC(N)=O)O[C@@H]1O[C@@H](C)[C@H](O)C[C@H]1O [1c, (R)-10-(((2R,3R,5R,6S)-3,5-dihydroxy-6-methyltetrahydro-2H-pyran-2-yl)oxy)-undecanamide]	reduced infection symptoms	comparable to that of ascr #18	–
not hydrolyzed or metabolized	taken up by plants	4.03E+06 and 6.78E+06	CCN(CC)C(=O)CCCCCCCC[C@@H](C)O[C@@H]1O[C@@H](C)[C@H](O)C[C@H]1O [compound 1a, (R)-10-(((2R,3R,5R,6S)-3,5-dihydroxy-6-methyltetrahydro-2H-pyran-2-yl)oxy)-N,N-diethylundecanamide]	reduced infection symptoms	comparable to that of ascr #18	longer half life than ascr #18 or the other analogs tested
hydrolyzed or metabolized by the plant	–	–	C[C@H](CCCCCCCCC(=O)NCCO)O[C@@H]1O[C@@H](C)[C@H](O)C[C@H]1O [1b, (R)-10-(((2R,3R,5R,6S)-3,5-dihydroxy-6-methyltetrahydro-2H-pyran-2-yl)oxy)-N-(2-hydroxyethyl)-undecanamide]	reduced infection symptoms	comparable to that of ascr #18	–
